One experiment has as its system MOLM-13 cells. The experiment in a line: MOLM-13 Cellular Assay. It counts as cell-based. As to conditions: Homo sapiens, 72 hours exposure, cell viability by CellTiter-Glo. Here is the method:
The day prior to assay set-up, cells were pelleted, resuspended in fresh media, counted, and cells were plated at 0.4×10^6 cell/mL in a T150 flask. […] Cells were exposed to different concentrations of test compounds at 37° C., 5% CO2 for 72 hours immediately after seeding.
On the technique in general: Cellular ATP, detected with luciferase, serves as a proxy for viable cell number.

The target of the next experiment is T1, human DHODH (Homo sapiens, UniProt Q02127).
T1 construct: purchased Proteros PR-0044
Kind of experiment: DHODH Enzymatic Assay. The class given is biochemical. Particulars: purified human DHODH; DCIP absorbance, end-point mode. Here is the method: To detect DHODH enzyme activities, dichloroindophenol (DCIP) is added as the final electron acceptor in the assay. DCIP can accept electrons from the reduced coenzyme Q generated in the assay, or from dihydroorotate (DHO) via FMN by binding presumably to the ubiquinone pocket. […] The assay buffer contained […], pH 7.5, 150 mM NaCl, 0.5 mM EDTA, and 0.1% Triton X-100 in MilliQ water. Substrate consisting of 20 mM DHO, 5 mM CoQ6, and 1 mM DCIP in assay buffer, initiates the reaction. […] Absorbance measurements were obtained using the BMG Phera Star plate-reading spectrophotomer. Purified human DHODH was purchased from Proteros (cat. No. PR-0044). Chemicals were purchased from Sigma-Aldrich, Teknova, and Avanti Polar Lipids. Liquid handling was performed using Labcyte Echo and Formulatrix Tempest.

The text below walks through data of US20220089568A1 (Janssen Biotech, Inc., priority 2019, published 2022).

The structures appear in SMILES notation.

T1 sequence (Q02127 whole entry): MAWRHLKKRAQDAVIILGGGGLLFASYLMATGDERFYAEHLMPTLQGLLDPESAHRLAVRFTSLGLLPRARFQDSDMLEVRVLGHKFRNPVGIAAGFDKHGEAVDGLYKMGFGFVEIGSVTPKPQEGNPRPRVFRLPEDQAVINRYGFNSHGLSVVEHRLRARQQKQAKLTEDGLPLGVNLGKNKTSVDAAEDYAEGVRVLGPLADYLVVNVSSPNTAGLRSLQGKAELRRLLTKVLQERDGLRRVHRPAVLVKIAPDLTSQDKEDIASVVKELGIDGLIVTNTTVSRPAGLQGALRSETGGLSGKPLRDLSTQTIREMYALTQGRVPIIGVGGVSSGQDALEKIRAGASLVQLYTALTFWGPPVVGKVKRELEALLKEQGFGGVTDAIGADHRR

One may read the EC50 as the midpoint of the concentration-response curve. As to `CCn1c(CO)nn(-c2nc(O[C@@H](C)C(F)(F)F)c(C(=O)Nc3cc(C)cnc3OC)cc2F)c1=O` [Example 41, (S)-6-(4-Ethyl-3-(hydroxymethyl)-5-oxo-4,5-dihydro-1H-1,2,4-triazol-1-yl)-5-fluoro-N-(2-methoxy-5-methylpyridin-3-yl)-2-((1,1,1-trifluoropropan-2-yl)oxy)nicotinamide], the concentration for a half-maximal effect (EC50) in the experiment on MOLM-13 cells is 52.4 nM; at human DHODH, 17.4 nM.
For `CCn1c(CO)nn(-c2nc(O[C@@H](C)C(F)(F)F)c(C(=O)Nc3c(C)ccnc3F)cc2F)c1=O` [Example 42, (S)-6-(4-Ethyl-3-(hydroxymethyl)-5-oxo-4,5-dihydro-1H-1,2,4-triazol-1-yl)-5-fluoro-N-(2-fluoro-4-methylpyridin-3-yl)-2-((1,1,1-trifluoropropan-2-yl)oxy)nicotinamide] the same measures were 4.3 nM and 2.4 nM.
As for `CCn1c(CO)nn(-c2nc(O[C@@H](C)C(F)(F)F)c(C(=O)Nc3ncnc(C)c3C)cc2F)c1=O` [Example 43, (S)-N-(5,6-Dimethylpyrimidin-4-yl)-6-(4-ethyl-3-(hydroxymethyl)-5-oxo-4,5-dihydro-1H-1,2,4-triazol-1-yl)-5-fluoro-2-((1,1,1-trifluoropropan-2-yl)oxy)nicotinamide], the results for the EC50 with MOLM-13 cells and at human DHODH were over 100 nM and 815 nM, respectively.
Regarding `CCn1c(CO)nn(-c2nc(O[C@@H](C)C(F)(F)F)c(C(=O)Nc3c(OC)ccnc3Cl)cc2F)c1=O` [Example 44, (S)-N-(2-Chloro-4-methoxypyridin-3-yl)-6-(4-ethyl-3-(hydroxymethyl)-5-oxo-4,5-dihydro-1H-1,2,4-triazol-1-yl)-5-fluoro-2-((1,1,1-trifluoropropan-2-yl)oxy)nicotinamide], the concentration giving a half-maximal response (EC50) was determined as 10.7 nM with MOLM-13 cells and 3.9 nM at human DHODH.
Take `CCn1c(CO)nn(-c2nc(O[C@@H](C)C(F)(F)F)c(C(=O)Nc3conc3C)cc2F)c1=O` [Example 45, (S)-6-(4-Ethyl-3-(hydroxymethyl)-5-oxo-4,5-dihydro-1H-1,2,4-triazol-1-yl)-5-fluoro-N-(3-methylisoxazol-4-yl)-2-((1,1,1-trifluoropropan-2-yl)oxy)nicotinamide]: the concentration giving a half-maximal response (EC50) in the experiment on MOLM-13 cells was over 100 nM; at human DHODH it was 142 nM.
In the case of `CCn1c(CO)nn(-c2nc(O[C@@H](C)C(F)(F)F)c(C(=O)Nc3c(C)noc3C)cc2F)c1=O` [Example 46, (S)-N-(3,5-Dimethylisoxazol-4-yl)-6-(4-ethyl-3-(hydroxymethyl)-5-oxo-4,5-dihydro-1H-1,2,4-triazol-1-yl)-5-fluoro-2-((1,1,1-trifluoropropan-2-yl)oxy)nicotinamide], the results for the concentration giving a half-maximal response (EC50) in the experiment on MOLM-13 cells and at human DHODH were 32.5 nM and 12.7 nM, respectively.
`CCn1c(CO)nn(-c2nc(O[C@@H](C)C(F)(F)F)c(C(=O)Nc3cc(OC)ccc3F)cc2F)c1=O` [Example 47, (S)-6-(4-Ethyl-3-(hydroxymethyl)-5-oxo-4,5-dihydro-1H-1,2,4-triazol-1-yl)-5-fluoro-N-(2-fluoro-5-methoxyphenyl)-2-((1,1,1-trifluoropropan-2-yl)oxy)nicotinamide]: the EC50 in the experiment with MOLM-13 cells is 6.9 nM; at human DHODH, 13.5 nM.
Regarding `CCn1c(CO)nn(-c2nc(O[C@@H](C)C(F)(F)F)c(C(=O)Nc3cc(C)ccc3Cl)cc2F)c1=O` [Example 48, (S)-N-(2-Chloro-5-methylphenyl)-6-(4-ethyl-3-(hydroxymethyl)-5-oxo-4,5-dihydro-1H-1,2,4-triazol-1-yl)-5-fluoro-2-((1,1,1-trifluoropropan-2-yl)oxy)nicotinamide], the 50% effective concentration (EC50) in the experiment with MOLM-13 cells is 0.553 nM; at human DHODH it was 0.761 nM.
As for `CCn1c(CO)nn(-c2nc(O[C@@H](C)C(F)(F)F)c(C(=O)Nc3c(C)n[nH]c3C)cc2F)c1=O` [Example 49, (S)-N-(3,5-Dimethyl-1H-pyrazol-4-yl)-6-(4-ethyl-3-(hydroxymethyl)-5-oxo-4,5-dihydro-1H-1,2,4-triazol-1-yl)-5-fluoro-2-((1,1,1-trifluoropropan-2-yl)oxy)nicotinamide], the EC50 with MOLM-13 cells turned out to be 21.1 nM; on human DHODH it was 6.4 nM.
